Test results taken from patent US5804555A, “Antioxidant” (Morinaga Milk Industry Co., Ltd., priority 1992, dated 1998).

What was measured:
[1] = Test 1: antioxidant effect on linoleic acid, peroxides by ferric thiocyanate method; format: biochemical; conditions: 0.2% added to linoleic acid, 60° C.
Protocol: A sample was prepared by adding dl-α tocopherol (manufactured by Wako Jun-yaku Kogyo Company), bovine lactoferrin (manufactured by Sigma Company), hydrolysate of lactoferrin (prepared by the same method as in the Example 2), or peptide (prepared by the same method as in the Example 3) to a final concentration of 0.2% (weight percentage; same applies hereafter except for the degree of decomposition) to commercially available linoleic acid (manufactured by Wako Jun-Yaku Kogyo Company) containing no additive. Hereafter, the thus prepared samples are individually referred to as […].
Antioxidant effect of the individual samples was tested by the method of Mitsuda et al.(Eiyo to Shokuryo, Vol. 19, p. 210, 1966) described below.
The above-mentioned samples were added to a mixed solution containing 10 ml of ethanol, 10 ml of 0.1M phosphate buffer solution (pH: 7.0), and 5 ml of deionized water so as to achieve a final concentration of linoleic acid of […](mol/l). This solution was placed in a vial bottle having a capacity of 50 ml, and the closely plugged bottle was held in an incubator at 60° C. The total volume was always adjusted to 25 ml by reducing the above-mentioned ionized water, depending upon the quantity of added sample. At prescribed time intervals, 0.1 ml was sampled from this vial bottle to measure the quantity of peroxides by the following ferric thiocyanate method.
To the sample solution in an amount of 0.1 ml, 4.7 ml of 75% ethanol, 0.1 ml of 30% ammonium rhodanide, and 0.1 ml of 3.5% hydrochloric acid solution of 2×10^-2 M ferrous chloride were added, and absorbance at 500 nm was measured upon the lapse of just three minutes.

[2] = Test 2: inducing period of linoleic acid oxidation (days until absorbance of 0.2 is exceeded); format: biochemical; conditions: single addition, final concentration 0.1% in linoleic acid
Protocol: The following 11 kinds of sample were prepared.
Sample 2: A sample prepared by adding a hydrolysate of lactoferrin (prepared by the same method as in the Example 2) to linoleic acid to achieve a final concentration of 0.1%;
Sample 3: A sample prepared by adding peptides (prepared by the same method as in the Example 3) to linoleic acid to achieve a final concentration of 0.1%;
Sample 4: A sample prepared by adding vitamin E (dl-α tocopherol the same one as in the Test 1) to linoleic acid to achieve a final concentration of 0.1%;
Sample 5: A sample prepared by adding superoxide dismutase (manufactured by Sigma Company) to linoleic acid to achieve a final concentration of 0.1%;
Sample 6: A sample prepared by adding β-carotene (manufactured by Nakaraitesk Company) to linoleic acid to achieve a final concentration of 0.1%;
Sample 7: A sample prepared by adding vitamin C (manufactured by Nakaraitesk Company) to linoleic acid to achieve a final concentration of 0.1%; […]
Absorbance was measured by the same method as in the Test 1, and with the number of days until an absorbance of 0.2 is exceeded as the inducing period, antioxidant effect was tested.

For `Cc1c(C)c2c(c(C)c1O)CCC(C)(CCCC(C)CCCC(C)CCCC(C)C)O2` (racemic) [Sample 2, dl-α tocopherol], the “Degree of peroxidation (absorbance at 500 nm)” value (shortened to “Degree of peroxidation”) ([1]; period of preservation 0 days) was 0, the “Degree of peroxidation” value ([1]; period of preservation 3 days) was 0.19 and the “Degree of peroxidation” value ([1]; period of preservation 6 days) was 0.16. For the same compound, the “Degree of peroxidation” value ([1]; period of preservation 10 days) was 0.16, the “Degree of peroxidation” value ([1]; period of preservation 13 days) was 0.21 and the Inducing period [2] was 8 days.
In the case of `O=C1O[C@H]([C@@H](O)CO)C(O)=C1O` [Vitamin C, ascorbic acid], the Inducing period [2] is reported as 8 days.
In the case of `CC1=C(/C=C/C(C)=C/C=C/C(C)=C/C=C/C=C(C)/C=C/C=C(C)/C=C/C2=C(C)CCCC2(C)C)C(C)(C)CCC1` [β-carotene], the Inducing period [2] is reported as 14 days.
Compound Superoxide dismutase has an Inducing period [2] of 10 days.
